Measurements taken from ChEMBL document CHEMBL4507276 (2021).

Tests used:
[1] = biological target: Mast/stem cell growth factor receptor Kit (Homo sapiens) (UniProt P10721); details: Compound concentration 1000.0 nM
[2] = biological target: TGF-beta receptor type-2 (Homo sapiens) (UniProt P37173); details: Compound concentration 1000.0 nM
[3] = biological target: Maternal embryonic leucine zipper kinase (Homo sapiens) (UniProt Q14680); details: Compound concentration 1000.0 nM
[4] = biological target: Ribosomal protein S6 kinase alpha-4 (Homo sapiens) (UniProt O75676); details: Compound concentration 1000.0 nM
[5] = biological target: Phosphatidylinositol 4-phosphate 3-kinase C2 domain-containing subunit beta (Homo sapiens) (UniProt O00750); details: Compound concentration 1000.0 nM
[6] = biological target: Histamine H2 receptor (Homo sapiens) (UniProt P25021); details: Compound concentration 10.0 uM
[7] = biological target: T1, Tyrosine-protein kinase Mer (Homo sapiens) (UniProt Q12866); details: Compound concentration 1000.0 nM
T1 sequence (whole entry): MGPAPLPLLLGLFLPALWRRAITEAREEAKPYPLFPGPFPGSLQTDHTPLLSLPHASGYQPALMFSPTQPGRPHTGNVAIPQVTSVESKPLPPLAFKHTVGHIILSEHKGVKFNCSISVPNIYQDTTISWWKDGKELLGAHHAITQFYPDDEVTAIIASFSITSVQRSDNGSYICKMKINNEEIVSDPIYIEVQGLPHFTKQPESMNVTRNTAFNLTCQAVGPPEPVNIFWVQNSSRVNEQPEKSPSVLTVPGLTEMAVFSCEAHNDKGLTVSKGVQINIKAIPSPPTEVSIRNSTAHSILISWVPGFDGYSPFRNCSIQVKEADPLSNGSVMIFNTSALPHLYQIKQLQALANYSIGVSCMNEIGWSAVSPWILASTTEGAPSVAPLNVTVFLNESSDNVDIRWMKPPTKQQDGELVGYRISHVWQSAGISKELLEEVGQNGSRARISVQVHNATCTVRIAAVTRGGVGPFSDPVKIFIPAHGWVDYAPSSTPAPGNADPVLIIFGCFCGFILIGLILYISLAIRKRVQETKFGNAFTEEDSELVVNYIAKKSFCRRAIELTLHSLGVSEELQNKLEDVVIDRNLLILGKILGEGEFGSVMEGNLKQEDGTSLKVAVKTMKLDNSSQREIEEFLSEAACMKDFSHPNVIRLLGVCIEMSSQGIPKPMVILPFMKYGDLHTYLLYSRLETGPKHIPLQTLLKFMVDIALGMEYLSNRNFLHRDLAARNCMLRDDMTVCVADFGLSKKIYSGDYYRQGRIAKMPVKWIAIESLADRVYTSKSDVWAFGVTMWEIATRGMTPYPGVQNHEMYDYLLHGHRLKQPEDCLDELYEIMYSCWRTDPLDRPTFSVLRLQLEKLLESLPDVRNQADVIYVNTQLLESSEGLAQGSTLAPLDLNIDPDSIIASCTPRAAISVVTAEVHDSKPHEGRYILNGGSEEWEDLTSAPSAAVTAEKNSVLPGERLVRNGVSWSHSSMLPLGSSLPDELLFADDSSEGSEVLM

[8] = biological target: Hormonally up-regulated neu tumor-associated kinase (Homo sapiens) (UniProt P57058); details: Compound concentration 1000.0 nM
[9] = biological target: Tyrosine-protein kinase ABL1 (Homo sapiens) (UniProt P00519); details: Compound concentration 1000.0 nM
[10] = biological target: Serine/threonine-protein kinase ULK2 (Homo sapiens) (UniProt Q8IYT8); details: Compound concentration 1000.0 nM
[11] = biological target: T2, Tyrosine-protein kinase JAK3 (Homo sapiens) (UniProt P52333); details: Compound concentration 1000.0 nM
T2 sequence (whole entry): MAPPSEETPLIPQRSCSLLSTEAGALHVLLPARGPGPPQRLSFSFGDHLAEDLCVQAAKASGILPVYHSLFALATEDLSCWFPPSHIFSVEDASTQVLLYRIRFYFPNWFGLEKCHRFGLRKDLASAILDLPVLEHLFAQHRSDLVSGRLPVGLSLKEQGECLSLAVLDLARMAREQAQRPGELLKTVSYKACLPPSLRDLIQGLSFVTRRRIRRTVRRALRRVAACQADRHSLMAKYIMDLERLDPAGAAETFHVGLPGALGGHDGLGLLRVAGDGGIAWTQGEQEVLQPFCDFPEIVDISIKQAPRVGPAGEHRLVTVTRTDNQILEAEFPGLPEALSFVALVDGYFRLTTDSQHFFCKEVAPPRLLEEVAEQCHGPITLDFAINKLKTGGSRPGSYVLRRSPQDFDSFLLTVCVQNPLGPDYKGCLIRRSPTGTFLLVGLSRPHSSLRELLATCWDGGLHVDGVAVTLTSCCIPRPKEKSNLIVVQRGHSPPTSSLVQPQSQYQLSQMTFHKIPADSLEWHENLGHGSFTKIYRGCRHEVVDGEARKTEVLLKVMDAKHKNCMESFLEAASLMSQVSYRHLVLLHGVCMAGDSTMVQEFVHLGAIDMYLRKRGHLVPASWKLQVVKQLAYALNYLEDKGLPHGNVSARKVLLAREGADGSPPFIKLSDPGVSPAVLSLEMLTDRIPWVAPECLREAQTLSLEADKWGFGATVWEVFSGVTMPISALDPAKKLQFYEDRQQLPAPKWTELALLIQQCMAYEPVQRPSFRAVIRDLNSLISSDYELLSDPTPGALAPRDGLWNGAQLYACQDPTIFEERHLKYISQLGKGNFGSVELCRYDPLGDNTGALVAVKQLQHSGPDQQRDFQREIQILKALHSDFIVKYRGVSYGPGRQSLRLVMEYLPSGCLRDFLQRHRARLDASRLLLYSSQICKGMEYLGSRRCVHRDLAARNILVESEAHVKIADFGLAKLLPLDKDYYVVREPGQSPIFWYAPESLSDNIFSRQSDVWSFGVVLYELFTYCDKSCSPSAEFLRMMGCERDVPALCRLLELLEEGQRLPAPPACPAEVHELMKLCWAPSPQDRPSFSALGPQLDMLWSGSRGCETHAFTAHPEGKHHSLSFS

[12] = system: Epidermal growth factor receptor (Homo sapiens), P00533 [G719S]; details: Compound concentration 1000.0 nM
[13] = biological target: Histamine H1 receptor (Homo sapiens) (UniProt P35367); details: Compound concentration 10.0 uM
[14] = biological target: Cyclin-dependent kinase-like 3 (Homo sapiens) (UniProt Q8IVW4); details: Compound concentration 1000.0 nM
[15] = biological target: Serine/threonine-protein kinase PAK 1 (Homo sapiens) (UniProt Q13153); details: Compound concentration 1000.0 nM

Hormonally up-regulated neu tumor-associated kinase (Homo sapiens), sequence (P57058 whole entry): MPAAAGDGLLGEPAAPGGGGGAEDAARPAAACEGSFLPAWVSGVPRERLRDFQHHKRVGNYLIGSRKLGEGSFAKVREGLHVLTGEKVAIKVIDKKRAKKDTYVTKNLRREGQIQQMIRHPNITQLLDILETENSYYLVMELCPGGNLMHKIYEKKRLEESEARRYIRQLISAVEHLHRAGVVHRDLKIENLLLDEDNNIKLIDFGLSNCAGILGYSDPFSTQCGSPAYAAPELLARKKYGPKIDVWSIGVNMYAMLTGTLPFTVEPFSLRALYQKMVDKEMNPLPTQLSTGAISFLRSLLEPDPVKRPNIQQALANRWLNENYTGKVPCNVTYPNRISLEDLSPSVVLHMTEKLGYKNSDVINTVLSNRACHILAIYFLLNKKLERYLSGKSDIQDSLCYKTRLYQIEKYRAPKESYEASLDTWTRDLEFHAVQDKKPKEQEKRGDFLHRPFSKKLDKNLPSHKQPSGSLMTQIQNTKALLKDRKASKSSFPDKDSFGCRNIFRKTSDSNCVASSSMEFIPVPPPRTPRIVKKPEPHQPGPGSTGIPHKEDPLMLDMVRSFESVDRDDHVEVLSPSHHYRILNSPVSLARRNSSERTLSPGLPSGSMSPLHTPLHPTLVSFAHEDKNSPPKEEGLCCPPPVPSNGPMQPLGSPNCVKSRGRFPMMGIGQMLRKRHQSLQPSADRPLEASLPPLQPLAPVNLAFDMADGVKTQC
Serine/threonine-protein kinase ULK2 (Homo sapiens), sequence (Q8IYT8 whole entry): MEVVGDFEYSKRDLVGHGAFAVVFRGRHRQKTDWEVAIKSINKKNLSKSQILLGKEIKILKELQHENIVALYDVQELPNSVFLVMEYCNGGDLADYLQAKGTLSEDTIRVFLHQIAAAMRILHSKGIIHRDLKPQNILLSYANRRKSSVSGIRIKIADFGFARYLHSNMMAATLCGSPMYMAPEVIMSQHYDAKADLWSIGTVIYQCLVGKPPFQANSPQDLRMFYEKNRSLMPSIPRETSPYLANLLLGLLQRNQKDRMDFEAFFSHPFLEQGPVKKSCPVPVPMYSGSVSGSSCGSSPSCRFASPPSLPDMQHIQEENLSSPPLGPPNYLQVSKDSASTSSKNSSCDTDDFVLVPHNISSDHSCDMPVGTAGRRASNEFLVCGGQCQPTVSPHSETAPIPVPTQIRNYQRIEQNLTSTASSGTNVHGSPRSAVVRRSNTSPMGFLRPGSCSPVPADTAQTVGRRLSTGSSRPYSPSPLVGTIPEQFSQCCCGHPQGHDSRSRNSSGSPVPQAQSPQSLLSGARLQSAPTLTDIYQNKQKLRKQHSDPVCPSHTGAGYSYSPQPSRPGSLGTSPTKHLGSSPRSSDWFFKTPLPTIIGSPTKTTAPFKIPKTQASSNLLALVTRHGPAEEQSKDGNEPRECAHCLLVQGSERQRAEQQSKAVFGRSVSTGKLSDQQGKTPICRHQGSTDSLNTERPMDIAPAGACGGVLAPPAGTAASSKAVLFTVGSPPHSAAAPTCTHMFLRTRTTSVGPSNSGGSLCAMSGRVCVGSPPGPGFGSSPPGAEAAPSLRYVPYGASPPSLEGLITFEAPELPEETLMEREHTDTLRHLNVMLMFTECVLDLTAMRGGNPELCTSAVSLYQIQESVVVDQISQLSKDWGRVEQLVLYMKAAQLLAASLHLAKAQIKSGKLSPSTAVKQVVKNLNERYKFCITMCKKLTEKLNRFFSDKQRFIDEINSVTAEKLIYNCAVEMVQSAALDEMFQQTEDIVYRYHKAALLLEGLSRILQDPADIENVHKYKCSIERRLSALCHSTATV
Cyclin-dependent kinase-like 3 (Homo sapiens), sequence (Q8IVW4 whole entry, looked up): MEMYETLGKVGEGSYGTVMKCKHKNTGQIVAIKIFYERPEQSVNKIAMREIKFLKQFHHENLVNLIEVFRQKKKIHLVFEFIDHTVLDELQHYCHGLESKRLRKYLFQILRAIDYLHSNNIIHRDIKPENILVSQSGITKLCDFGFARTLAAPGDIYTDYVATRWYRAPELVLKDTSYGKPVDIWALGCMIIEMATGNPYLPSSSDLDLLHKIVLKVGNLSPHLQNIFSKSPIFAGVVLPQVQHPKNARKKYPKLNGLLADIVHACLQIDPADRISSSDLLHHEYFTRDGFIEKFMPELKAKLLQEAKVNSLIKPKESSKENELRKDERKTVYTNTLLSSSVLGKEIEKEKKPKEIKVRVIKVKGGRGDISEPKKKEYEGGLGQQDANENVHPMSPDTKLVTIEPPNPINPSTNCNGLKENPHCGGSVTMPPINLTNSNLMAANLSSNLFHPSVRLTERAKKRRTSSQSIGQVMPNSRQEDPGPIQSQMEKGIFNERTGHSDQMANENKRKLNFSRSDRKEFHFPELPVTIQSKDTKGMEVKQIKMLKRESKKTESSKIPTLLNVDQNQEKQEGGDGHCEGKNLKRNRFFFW
Mast/stem cell growth factor receptor Kit (Homo sapiens), sequence (P10721 whole entry): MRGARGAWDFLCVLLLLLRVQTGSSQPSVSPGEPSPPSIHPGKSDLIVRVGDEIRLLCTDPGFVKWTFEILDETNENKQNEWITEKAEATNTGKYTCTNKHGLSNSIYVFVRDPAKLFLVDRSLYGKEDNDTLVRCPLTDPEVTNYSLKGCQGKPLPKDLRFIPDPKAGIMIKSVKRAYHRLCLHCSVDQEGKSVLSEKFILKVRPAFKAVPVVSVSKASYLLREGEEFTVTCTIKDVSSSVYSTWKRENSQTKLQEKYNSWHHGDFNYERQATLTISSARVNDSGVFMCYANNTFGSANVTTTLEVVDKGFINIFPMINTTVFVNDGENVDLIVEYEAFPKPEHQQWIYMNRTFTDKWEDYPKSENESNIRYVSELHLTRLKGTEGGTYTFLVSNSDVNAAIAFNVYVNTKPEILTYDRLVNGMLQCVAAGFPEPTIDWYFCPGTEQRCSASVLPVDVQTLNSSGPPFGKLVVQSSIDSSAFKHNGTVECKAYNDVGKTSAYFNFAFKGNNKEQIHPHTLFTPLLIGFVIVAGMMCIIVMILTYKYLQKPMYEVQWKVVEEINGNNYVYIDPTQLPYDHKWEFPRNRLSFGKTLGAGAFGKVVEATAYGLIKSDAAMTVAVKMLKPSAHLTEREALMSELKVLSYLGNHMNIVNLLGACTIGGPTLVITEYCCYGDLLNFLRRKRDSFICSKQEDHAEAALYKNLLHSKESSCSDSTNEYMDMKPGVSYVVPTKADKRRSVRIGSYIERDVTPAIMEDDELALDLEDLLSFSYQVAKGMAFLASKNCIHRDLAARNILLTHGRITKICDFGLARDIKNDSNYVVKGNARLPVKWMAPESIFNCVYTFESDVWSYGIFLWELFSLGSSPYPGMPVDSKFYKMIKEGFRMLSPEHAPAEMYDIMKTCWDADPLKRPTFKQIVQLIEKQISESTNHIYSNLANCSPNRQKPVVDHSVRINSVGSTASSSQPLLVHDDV
Phosphatidylinositol 4-phosphate 3-kinase C2 domain-containing subunit beta (Homo sapiens), sequence (O00750 whole entry, the tested form may be a part): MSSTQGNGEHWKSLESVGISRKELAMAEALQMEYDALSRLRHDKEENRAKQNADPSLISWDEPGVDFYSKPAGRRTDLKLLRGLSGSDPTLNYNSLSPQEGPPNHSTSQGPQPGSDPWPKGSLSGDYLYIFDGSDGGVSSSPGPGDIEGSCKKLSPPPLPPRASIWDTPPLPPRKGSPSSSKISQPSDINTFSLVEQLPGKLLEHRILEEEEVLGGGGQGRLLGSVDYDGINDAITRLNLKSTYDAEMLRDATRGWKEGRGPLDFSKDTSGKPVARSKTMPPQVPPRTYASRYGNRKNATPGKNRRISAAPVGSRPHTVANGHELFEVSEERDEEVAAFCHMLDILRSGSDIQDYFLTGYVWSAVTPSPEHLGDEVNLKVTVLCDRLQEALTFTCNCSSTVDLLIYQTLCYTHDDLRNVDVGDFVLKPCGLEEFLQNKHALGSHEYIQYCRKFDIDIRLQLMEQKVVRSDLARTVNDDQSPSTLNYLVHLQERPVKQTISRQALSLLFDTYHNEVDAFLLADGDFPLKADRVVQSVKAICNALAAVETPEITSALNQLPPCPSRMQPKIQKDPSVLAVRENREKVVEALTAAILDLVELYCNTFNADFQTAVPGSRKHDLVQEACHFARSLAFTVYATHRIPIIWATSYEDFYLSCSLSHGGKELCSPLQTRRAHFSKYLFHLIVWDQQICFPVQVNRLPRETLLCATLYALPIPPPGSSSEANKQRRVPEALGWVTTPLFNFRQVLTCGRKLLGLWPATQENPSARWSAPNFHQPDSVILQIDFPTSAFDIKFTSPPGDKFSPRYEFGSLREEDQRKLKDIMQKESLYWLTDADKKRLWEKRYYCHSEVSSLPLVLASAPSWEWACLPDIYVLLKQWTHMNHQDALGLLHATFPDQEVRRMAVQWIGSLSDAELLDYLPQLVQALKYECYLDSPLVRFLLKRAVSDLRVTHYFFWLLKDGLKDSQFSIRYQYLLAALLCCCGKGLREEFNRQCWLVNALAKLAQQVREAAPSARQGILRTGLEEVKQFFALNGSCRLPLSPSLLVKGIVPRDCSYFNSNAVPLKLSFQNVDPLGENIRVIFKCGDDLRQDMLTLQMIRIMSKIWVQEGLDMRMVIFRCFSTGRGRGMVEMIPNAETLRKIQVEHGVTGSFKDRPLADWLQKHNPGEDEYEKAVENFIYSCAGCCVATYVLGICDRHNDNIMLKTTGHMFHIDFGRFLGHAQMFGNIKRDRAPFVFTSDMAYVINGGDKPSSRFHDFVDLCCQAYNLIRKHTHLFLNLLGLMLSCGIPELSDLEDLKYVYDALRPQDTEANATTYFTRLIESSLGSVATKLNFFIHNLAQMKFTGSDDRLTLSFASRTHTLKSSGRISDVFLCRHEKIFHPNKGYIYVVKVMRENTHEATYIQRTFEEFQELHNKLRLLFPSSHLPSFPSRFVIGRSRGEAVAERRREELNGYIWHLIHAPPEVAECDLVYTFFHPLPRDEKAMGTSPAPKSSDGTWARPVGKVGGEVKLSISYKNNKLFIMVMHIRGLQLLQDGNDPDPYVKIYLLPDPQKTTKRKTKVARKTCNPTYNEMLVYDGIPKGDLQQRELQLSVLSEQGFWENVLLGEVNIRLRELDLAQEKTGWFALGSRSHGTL

CN(C)C(=O)Cn1cc(-c2nc(C3(c4ccc(-c5cnc(N)nc5)cc4)CC3)no2)cn1 [BI 0153]
inactive: residual activity [1] 77% | residual activity [2] 100% | residual activity [3] 92% | residual activity [4] 86% | residual activity [5] 100% | inhibition [6] -9.18% | residual activity [7] 88% | residual activity [8] 96% | residual activity [9] 93% | residual activity [10] 78% | residual activity [11] 80% | residual activity [12] 100% | inhibition [13] 8.78% | residual activity [14] 80% | residual activity [15] 100%

CN(C)C(=O)Cn1cc(-c2nc([C@@](C)(c3ccc(-c4cnc(N)nc4)cc3)C3CC3)no2)cn1 [BI 665915]
inactive: residual activity [1] 86% | residual activity [2] 88% | residual activity [3] 87% | residual activity [4] 72% | residual activity [5] 96% | inhibition [6] -8.4% | residual activity [7] 100% | residual activity [8] 100% | residual activity [9] 84% | residual activity [10] 100% | residual activity [11] 95% | residual activity [12] 98% | inhibition [13] 7.66% | residual activity [14] 94% | residual activity [15] 100%
